{"source": "patent US20110256121A1", "about": "“METHODS AND KITS FOR DIAGNOSING OR MONITORING AUTOIMMUNE AND CHRONIC INFLAMMATORY DISEASES” (THE REGENTS OF THE UNIVERSITY OF MICHIGAN, priority 2008, published 2011)", "key": {"Sp1": {"test_system": "Sp1", "test": "Sp1 quantitation in nuclear extracts of T cells", "assay_type": "cell-based, human", "details": "PHA-stimulated T cells, 5-azaC 72 h"}, "KIR2DL2 [1]": {"test_system": "KIR2DL2", "test": "KIR2DL2 transcripts by real-time quantitative RT-PCR", "assay_type": "cell-based, human", "details": "relative to β-actin, p<0.001 for both", "experimental": "(§1) T cell purification and culture. Peripheral blood mononuclear cells (PBMC) were isolated from healthy donors by density gradient centrifugation, stimulated for 18 hours with 1 μg/mlphytohemagglutinin (PHA) (Murex, Norcross, Ga.), then treated or not with 5 μm 5-azacytidine (5-azaC, Sigma, St. Louis, Mo.) for 72 hours as described (6). Total T cells, CD4^+ T cells or CD8′ T cells then were purified using the pan T cell isolation kit II or the CD4^+ and CD8^+ T cell isolation kit II from Miltenyi (Auburn, Calif.). T cells were typically >94% CD3^+ by flow cytometry. Jurkat cells (E6-1) were maintained in culture as described (11). This protocol was approved by the University of Michigan Institutional Review Board.\nReal-time quantitative RT-PCR. Total RNA was isolated using the RNeasy Mini Kit (QIAGEN, Valencia, Calif.). Primers were designed to match polymorphic positions unique to KIR2DL2 or KIR2DL4 genes as described by Uhrberg et al. (13). Controls included β-actin primers as described (14). Real-time quantitative RT-PCR was performed with a Rotor-Gene 3000 (Corbett Robotics, San Francisco, Calif.) and QuantiTect SYBR Green RT-PCR kit (QIAGEN) according to manufacturer's instructions. cDNA synthesized from T cells was used to generate standard curves for β-actin, KIR2DL2 and KIR2DL4, and each experiment was repeated at least twice.\nConfirmation at the protein and mRNA levels. […]"}, "KIR2DL2 [2]": {"test_system": "KIR2DL2", "test": "KIR2DL2 expression on T cells by flow cytometry", "assay_type": "cell-based, human", "experimental": "as §1\n(§2) Flow Cytometric Analysis. The following monoclonal antibodies were used: CYC-anti-CD3, FITC-anti-CD8, CYC-anti-CD4, FITC-anti-CD28, CYC-mouse IgG1 and FITC-mouse-IgG1 (all from BD PharMingen, San Diego, Calif.). Anti-CD158b1/b2, j-PE (GL183, reactive with KIR 2DL2/2DL3/2DS2) was obtained from Beckman Coulter Immunotech (Buckinghamshire, UK), anti-CD158d-PE (anti-KIR2DL4) from R&D Systems (Minneapolis, Minn.), and PE-mouse-IgG2A from Abcam (Cambridge Mass.). Cell staining and fixation were performed as described (2; 6), and cells analyzed using a FACSCalibur flow cytometer (BD Biosciences, Franklin Lakes, N.J.).\nConfirmation at the protein and mRNA levels. The effect of 5-azaC on KIR2DL2 and KIR2DL4 was confirmed in CD4+ and CD8+ T cells at the protein and mRNA levels. […] 5-azaC induces KIR2DL2 expression on both subsets, but a greater increase is seen on the CD8+ subset. FIG. 25b summarizes the effect of 5-azaC on KIR2DL2 expression in CD4+ and CD8+ T cells from healthy subjects. […] Since KIR is primarily expressed on CD28− T cells (24), KIR2DL2 expression was compared on CD28+ and CD28− T cells with and without 5-azaC treatment. KIR2DL2 expression increased on the CD28+ subset relative to untreated cells (1.9±0.2% vs 0.1±0.1%, 5-azaC treated vs untreated, n=3, p<0.001), but not on the CD28− subset (0.27±0.13% vs 0.30±0.18%, treated vs untreated, n=3)."}, "KIR2DL4 [3]": {"test_system": "KIR2DL4", "test": "KIR2DL4 expression on T cells by flow cytometry", "assay_type": "cell-based, human", "details": "5-azaC 72 h, p<0.001 for both", "experimental": "as §1, §2"}, "KIR2DL4 [4]": {"test_system": "KIR2DL4", "test": "Cell stimulation with immobilized anti-KIR2DL4 and IFN-γ quantitation (Example 15)", "assay_type": "cell-based, human", "details": "without anti-KIR2DL4 crosslinking, p<0.001", "experimental": "Cell stimulation and IFN-γ quantitation. Anti-human KIR2DL4 (R&D systems) or isotype matched control (10 μg/ml in PBS) were added to 24 well plates, incubated 6 hours 37° C., then the wells were washed twice with PBS to remove unbound antibody. 2×10^5 T cells were then added to the coated wells in RPMI 1640 supplemented with 10% FBS and cultured for 20 hours. The supernatant was then recovered and IFN-γ levels measured using a human IFN-γ ELISA kit (R&D Systems).\nKIR function in 5-azaC treated T cells. It was determined if 5-azaC induced KIR2DL4 stimulates IFN-γ in T cells. PBMC were stimulated with PHA for 18 hours, treated with 5-azaC, then 72 hours later CD4+ and CD8+ cells were isolated, stimulated for 6 hours with immobilized anti-KIR2DL4 or an isotype matched antibody, then IFN-γ was measured in the supernatant by ELISA."}, "KIR3DL1": {"target": "T1, KIR3DL1 (Homo sapiens, UniProt P43629)", "T1 construct": "endogenous in cells; host or cells: primary T cells of healthy donors, PHA-stimulated and 5-azaC treated, with autologous monocytes/macrophages", "T1 sequence (P43629 22-444)": "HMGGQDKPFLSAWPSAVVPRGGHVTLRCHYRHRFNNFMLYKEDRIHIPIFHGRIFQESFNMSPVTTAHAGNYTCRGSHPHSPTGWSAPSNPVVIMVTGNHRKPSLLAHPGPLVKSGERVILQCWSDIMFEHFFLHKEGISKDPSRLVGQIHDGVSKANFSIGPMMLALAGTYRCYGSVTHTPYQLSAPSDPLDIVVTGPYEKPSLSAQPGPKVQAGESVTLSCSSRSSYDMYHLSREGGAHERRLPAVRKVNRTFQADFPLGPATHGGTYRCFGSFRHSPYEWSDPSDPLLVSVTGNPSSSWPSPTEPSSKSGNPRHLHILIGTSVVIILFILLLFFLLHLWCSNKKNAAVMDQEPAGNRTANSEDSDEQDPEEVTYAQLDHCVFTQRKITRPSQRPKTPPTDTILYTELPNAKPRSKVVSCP", "test": "Macrophage killing assay with 5-azaC treated T cells, 51Cr release", "assay_type": "cell-based", "details": "18 hrs"}}}
{"smiles": "Nc1ncn([C@@H]2O[C@H](CO)[C@@H](O)[C@H]2O)c(=O)n1", "note": "[5-azaC, 5-azacytidine]", "values": [{"measurement": "activated Sp1 levels", "setting": "Sp1", "result": "increases activated Sp1 levels"}, {"measurement": "KIR2DL2 mRNA in CD4+ and CD8+ T cells", "setting": "KIR2DL2 [1]", "result": "increase is significant in both subsets"}, {"measurement": "KIR2DL2 expression on CD4+ and CD8+ T cells", "setting": "KIR2DL2 [2]; 5-azaC 72 h, p<0.001 for each subset", "result": "increases KIR2DL2 expression on both"}, {"measurement": "CD4 or CD8 expression", "setting": "KIR2DL2 [2]; 5-azaC treated T cells", "result": "no significant effect"}, {"measurement": "KIR2DL2 expression on the CD28+ subset", "setting": "KIR2DL2 [2]; 5-azaC treated, untreated 0.1±0.1%, n=3, p<0.001", "result": "1.9±0.2", "unit": "%"}, {"measurement": "KIR2DL2 expression on the CD28− subset", "setting": "KIR2DL2 [2]; 5-azaC treated, untreated 0.30±0.18%, n=3", "result": "0.27±0.13", "unit": "%"}, {"measurement": "KIR2DL4 expression on CD4+ and CD8+ T cells", "setting": "KIR2DL4 [3]", "result": "induces KIR2DL4 expression on CD4+ and CD8+ T cells"}, {"measurement": "IFN-γ secretion by 5-azaC treated CD4+ and CD8+ T cells", "setting": "KIR2DL4 [4]", "result": "secrete significant (p<0.001) amounts of IFN-γ"}, {"measurement": "killing of autologous Mo by demethylated (5-azaC treated) T cells", "setting": "KIR3DL1", "result": "spontaneously kill autologous Mo"}]}
